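Exposure lasted 48 hours, with cells grown in 96-well plates and compounds tested at five concentrations. Here, GI50 denotes the concentration required for 50% inhibition of growth. TGI is the concentration that stops growth completely.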
Experiments:
Assay in all cases: growth of human tumour cells (NCI), 48 h
786-0 renal = tested on: 786-0 renal
A498 renal = tested on: A498 renal
A549 NSCLC = tested on: A549 NSCLC
ACHN renal = tested on: ACHN renal
BT-549 breast = tested on: BT-549 breast
CAKI-1 renal = tested on: CAKI-1 renal
CCRF-CEM leukemia = tested on: CCRF-CEM leukemia
COLO 205 colon = tested on: COLO 205 colon
DU-145 prostate = tested on: DU-145 prostate
EKVX NSCLC = tested on: EKVX NSCLC
HCC-2998 colon = tested on: HCC-2998 colon
HCT-116 colon = tested on: HCT-116 colon
HCT-15 colon = tested on: HCT-15 colon
HL-60(TB) leukemia = tested on: HL-60(TB) leukemia
HOP-62 NSCLC = tested on: HOP-62 NSCLC
HOP-92 NSCLC = tested on: HOP-92 NSCLC
HS 578T breast = tested on: HS 578T breast
HT29 colon = tested on: HT29 colon
IGROV1 ovarian = tested on: IGROV1 ovarian
K-562 leukemia = tested on: K-562 leukemia
KM12 colon = tested on: KM12 colon
LOX IMVI melanoma = tested on: LOX IMVI melanoma
M14 melanoma = tested on: M14 melanoma
MALME-3M melanoma = tested on: MALME-3M melanoma
MCF7 breast = tested on: MCF7 breast
MDA-MB-231 breast = tested on: MDA-MB-231 breast
MDA-MB-435 = tested on: MDA-MB-435
MDA-MB-468 breast = tested on: MDA-MB-468 breast
MOLT-4 leukemia = tested on: MOLT-4 leukemia
NCI-H226 lung = tested on: NCI-H226 lung
NCI-H23 lung = tested on: NCI-H23 lung
NCI-H460 lung = tested on: NCI-H460 lung
NCI-H522 lung = tested on: NCI-H522 lung
NCI/ADR-RES ovarian = tested on: NCI/ADR-RES ovarian
OVCAR-3 ovarian = tested on: OVCAR-3 ovarian
OVCAR-4 ovarian = tested on: OVCAR-4 ovarian
OVCAR-5 ovarian = tested on: OVCAR-5 ovarian
OVCAR-8 ovarian = tested on: OVCAR-8 ovarian
PC-3 prostate = tested on: PC-3 prostate
RPMI-8226 leukemia = tested on: RPMI-8226 leukemia
RXF 393 renal = tested on: RXF 393 renal
SF-268 CNS = tested on: SF-268 CNS
SF-295 CNS = tested on: SF-295 CNS
SF-539 CNS = tested on: SF-539 CNS
SK-MEL-2 melanoma = tested on: SK-MEL-2 melanoma
SK-MEL-28 melanoma = tested on: SK-MEL-28 melanoma
SK-MEL-5 melanoma = tested on: SK-MEL-5 melanoma
SK-OV-3 ovarian = tested on: SK-OV-3 ovarian
SN12C renal = tested on: SN12C renal
SNB-19 CNS = tested on: SNB-19 CNS
SNB-75 CNS = tested on: SNB-75 CNS
SW-620 colon = tested on: SW-620 colon
T-47D breast = tested on: T-47D breast
TK-10 renal = tested on: TK-10 renal
U251 CNS = tested on: U251 CNS
UACC-257 melanoma = tested on: UACC-257 melanoma
UACC-62 melanoma = tested on: UACC-62 melanoma
UO-31 renal = tested on: UO-31 renal

C=C1CCC2C3(C)COC(c4ccccc4)OC3CCC2(C)C1CC(Sc1ccccc1)C1=CCOC1=O (stereo unspecified)
GI50 (786-0 renal): 14.4 µM | TGI (786-0 renal): 40.5 µM | GI50 (A498 renal): > 100 µM | TGI (A498 renal): > 100 µM | GI50 (A549 NSCLC): 13.1 µM | TGI (A549 NSCLC): > 100 µM | GI50 (ACHN renal): 12.7 µM | TGI (ACHN renal): > 100 µM | GI50 (BT-549 breast): 2.17 µM | TGI (BT-549 breast): 9.12 µM | GI50 (CAKI-1 renal): 18.6 µM | TGI (CAKI-1 renal): > 100 µM | GI50 (CCRF-CEM leukemia): 2.35 µM | TGI (CCRF-CEM leukemia): 8.71 µM | GI50 (COLO 205 colon): 20.3 µM | TGI (COLO 205 colon): 46.8 µM | GI50 (DU-145 prostate): 18.5 µM | TGI (DU-145 prostate): > 100 µM | GI50 (EKVX NSCLC): 5.77 µM | TGI (EKVX NSCLC): 95.5 µM | GI50 (HCC-2998 colon): 22.3 µM | TGI (HCC-2998 colon): > 100 µM | GI50 (HCT-116 colon): 3.52 µM | TGI (HCT-116 colon): 15.5 µM | GI50 (HCT-15 colon): 5.12 µM | TGI (HCT-15 colon): 45 µM | GI50 (HL-60(TB) leukemia): 2.66 µM | TGI (HL-60(TB) leukemia): 8.66 µM | GI50 (HOP-62 NSCLC): 72.2 µM | TGI (HOP-62 NSCLC): > 100 µM | GI50 (HOP-92 NSCLC): 6.54 µM | TGI (HOP-92 NSCLC): 41.9 µM | GI50 (HS 578T breast): 37 µM | TGI (HS 578T breast): > 100 µM | GI50 (HT29 colon): 5.8 µM | TGI (HT29 colon): 39.7 µM | GI50 (IGROV1 ovarian): 17.3 µM | TGI (IGROV1 ovarian): > 100 µM | GI50 (K-562 leukemia): 3.88 µM | TGI (K-562 leukemia): > 100 µM | GI50 (KM12 colon): 11.7 µM | TGI (KM12 colon): > 100 µM | GI50 (LOX IMVI melanoma): 3.43 µM | TGI (LOX IMVI melanoma): 14.3 µM | GI50 (M14 melanoma): 9.87 µM | TGI (M14 melanoma): 35 µM | GI50 (MALME-3M melanoma): 27.9 µM | TGI (MALME-3M melanoma): > 100 µM | GI50 (MCF7 breast): 3.42 µM | TGI (MCF7 breast): > 100 µM | GI50 (MDA-MB-231 breast): 13.7 µM | TGI (MDA-MB-231 breast): 49 µM | GI50 (MDA-MB-435): 7.09 µM | TGI (MDA-MB-435): 35.4 µM | GI50 (MDA-MB-468 breast): 4.8 µM | TGI (MDA-MB-468 breast): 26.4 µM | GI50 (MOLT-4 leukemia): 2.97 µM | TGI (MOLT-4 leukemia): > 100 µM | GI50 (NCI-H226 lung): 6.32 µM | TGI (NCI-H226 lung): 42.4 µM | GI50 (NCI-H23 lung): 25.7 µM | TGI (NCI-H23 lung): > 100 µM | GI50 (NCI-H460 lung): 17.4 µM | TGI (NCI-H460 lung): > 100 µM | GI50 (NCI-H522 lung): 10.4 µM | TGI (NCI-H522 lung): 22.8 µM | GI50 (NCI/ADR-RES ovarian): 4.78 µM | TGI (NCI/ADR-RES ovarian): 26.4 µM | GI50 (OVCAR-3 ovarian): 3.66 µM | TGI (OVCAR-3 ovarian): 13.1 µM | GI50 (OVCAR-4 ovarian): 25.5 µM | TGI (OVCAR-4 ovarian): > 100 µM | GI50 (OVCAR-5 ovarian): 25.9 µM | TGI (OVCAR-5 ovarian): > 100 µM | GI50 (OVCAR-8 ovarian): 4.98 µM | TGI (OVCAR-8 ovarian): 29 µM | GI50 (PC-3 prostate): 5.88 µM | TGI (PC-3 prostate): > 100 µM | GI50 (RPMI-8226 leukemia): 2.59 µM | TGI (RPMI-8226 leukemia): 7.84 µM | GI50 (RXF 393 renal): 6.61 µM | TGI (RXF 393 renal): 43 µM | GI50 (SF-268 CNS): 48.6 µM | TGI (SF-268 CNS): > 100 µM | GI50 (SF-295 CNS): 21.3 µM | TGI (SF-295 CNS): > 100 µM | GI50 (SF-539 CNS): 6.82 µM | TGI (SF-539 CNS): 20.8 µM | GI50 (SK-MEL-2 melanoma): 6.22 µM | TGI (SK-MEL-2 melanoma): 21.9 µM | GI50 (SK-MEL-28 melanoma): 27.2 µM | TGI (SK-MEL-28 melanoma): > 100 µM | GI50 (SK-MEL-5 melanoma): 10.9 µM | TGI (SK-MEL-5 melanoma): 23.4 µM | GI50 (SK-OV-3 ovarian): > 100 µM | TGI (SK-OV-3 ovarian): > 100 µM | GI50 (SN12C renal): 10.4 µM | TGI (SN12C renal): > 100 µM | GI50 (SNB-19 CNS): 45.1 µM | TGI (SNB-19 CNS): > 100 µM | GI50 (SNB-75 CNS): 1.71 µM | TGI (SNB-75 CNS): > 100 µM | GI50 (SW-620 colon): 3.31 µM | TGI (SW-620 colon): > 100 µM | GI50 (T-47D breast): 5.2 µM | TGI (T-47D breast): > 100 µM | GI50 (TK-10 renal): 76.1 µM | TGI (TK-10 renal): > 100 µM | GI50 (U251 CNS): 9.9 µM | TGI (U251 CNS): 26.5 µM | GI50 (UACC-257 melanoma): 33.6 µM | TGI (UACC-257 melanoma): > 100 µM | GI50 (UACC-62 melanoma): 10.3 µM | TGI (UACC-62 melanoma): 27.7 µM | GI50 (UO-31 renal): 6.36 µM | TGI (UO-31 renal): > 100 µM

From PubChem BioAssay (NCI)
